# According to patent US20080293727A1, “Novel sulfonamide inhibitors of aspartyl protease” (priority 1992, published 2008):
# pKi: −log10 of the molar value.
# Biological target: HIV-1 protease (Human immunodeficiency virus type 1 group M subtype B, UniProt P04585)
# Test: Inhibition constants against HIV-1 protease (method of Pennington et al.)
# Format: biochemical
# Conditions: HIV-1 protease; read-out: Ki value
# Source text: We measured the inhibition constants of the compounds listed in Table VII against HIV-1 protease using the above-cited method of Pennington et al.
structure (smiles),measurement,value
CC(=O)Nc1ccc(S(=O)(=O)N(Cc2ccco2)C[C@@H](O)[C@H](Cc2ccccc2)NC(=O)O[C@H]2CCOC2)cc1 [Compound 137],pKi,7.59
CC(=O)Nc1nc(C)c(S(=O)(=O)N(CC(C)C)C[C@@H](O)[C@H](Cc2ccccc2)NC(=O)[C@H](CC(N)=O)NC(=O)c2ccc3ccccc3n2)s1 [Compound 18],pKi,> 10.00
CC(=O)Nc1ccc(S(=O)(=O)N(CC(C)C)C[C@@H](O)[C@H](Cc2ccccc2)NC(=O)OCc2ccccc2)cc1 [Compound 61],pKi,8.40
COc1ccc(S(=O)(=O)N(C)C[C@@H](O)[C@H](Cc2ccccc2)NC(=O)O[C@H]2CCOC2)cc1 [Compound 1005],pKi,6.60
C=C(C)COC(=O)N[C@@H](Cc1ccccc1)[C@H](O)CN(CC(C)C)S(=O)(=O)c1ccc(NC(C)=O)cc1 [Compound 105],pKi,8.12
CC(=O)Nc1ccc(S(=O)(=O)N(CC(C)C)C[C@@H](O)[C@H](Cc2ccccc2)NC(=O)OCCN2CCCC2=O)cc1 [Compound 30],pKi,7.21
C=CCOC(=O)N[C@@H](Cc1ccccc1)[C@H](O)CN(CC1CCCC1)S(=O)(=O)c1ccc(Cl)cc1 [Compound 117],pKi,9.59
NC(=O)C[C@H](NC(=O)c1ccc2ccccc2n1)C(=O)N[C@@H](Cc1ccccc1)[C@H](O)CN(Cc1ccccc1)S(=O)(=O)c1cccc(C(F)(F)F)c1 [Compound 4],pKi,7.72
COc1ccc(S(=O)(=O)N(CC2CCCC2)C[C@@H](O)[C@H](Cc2ccccc2)NC(=O)OCc2ccccc2OC)cc1 [Compound 179],pKi,9.40
CC(=O)Nc1nc(C)c(S(=O)(=O)N(Cc2ccccc2)C[C@@H](O)[C@H](Cc2ccccc2)NC(=O)[C@H](CC(N)=O)NC(=O)c2ccc3ccccc3n2)s1 [Compound 5],pKi,8.70
"O=C(N[C@@H](Cc1ccccc1)[C@H](O)CN(CC1CCCC1)S(=O)(=O)c1ccccc1)O[C@H]1CCOC1 [Compound 148, N-Cyclopentylmethyl-N-((2 syn,3S)-2-hydroxy-4-phenyl-3-((S)-tetrahydrofuran-3-yloxycarbonylamino)-butyl)-benzenesulfonamide]",pKi,9.70
"CCOC(=O)N[C@@H](Cc1ccccc1)[C@H](O)CN(CC1CCCC1)S(=O)(=O)c1ccc(F)cc1 [Compound 115, N-Cyclopentylmethyl-N-((3-ethoxycarbonylamino)-(2 syn,3S)-2-hydroxy-4-phenyl-butyl)-4-fluoro-benzenesulfonamide]",pKi,9.30
"CC(C)CN(C[C@@H](O)[C@H](Cc1ccccc1)NC(=O)O[C@H]1CCOC1)S(=O)(=O)c1ccc(-c2ccon2)s1 [Compound 145, 5-Isoxazol-3-yl-thiophene-2-sulfonic acid ((2 syn,3S)-2-hydroxy-4-phenyl-3-((S)-tetrahydrofuran-3-yloxycarbonylamino)-butyl)-isobutyl-amide]",pKi,8.85
CC(=O)Nc1ccc(S(=O)(=O)N(CC(C)C)C[C@@H](O)[C@H](Cc2ccccc2)NC(=O)[C@@H]2CCC(=O)N2)cc1 [Compound 43],pKi,5.38
"CC(C)CN(C[C@@H](O)[C@H](Cc1ccccc1)NC(=O)O[C@@H]1CCOC1)S(=O)(=O)c1ccc(F)cc1 [Compound 93, 4-Fluoro-N-((2 syn,3S)-2-hydroxy-4-phenyl-3-((R)-tetrahydrofuran-3-yloxycarbonylamino)-butyl)-N-isobutyl-benzenesulfonamide]",pKi,9.10
CC(C)CN(C[C@@H](O)[C@H](Cc1ccccc1)NC(=O)OC(C)(C)C)S(=O)(=O)c1cccc2nonc12 [Compound 58],pKi,7.47
"COc1ccc(S(=O)(=O)N(CC2CCCC2)C[C@@H](O)[C@H](Cc2ccccc2)NC(=O)O[C@H]2CCOC2)cc1 [Compound 140, N-cyclopentylmethyl-N-((2 syn,3S)-2-hydroxy-4-phenyl-3-((S)-tetrahydrofuran-3-yloxycarbonylamino)-butyl)-4-methoxy-benzenesulfonamide]",pKi,> 10.00
COc1ccc(S(=O)(=O)N(CC2CCCC2)C[C@@H](O)[C@H](Cc2ccccc2)NC(=O)OCc2cccnc2)cc1 [Compound 142],pKi,> 10.00
"COc1ccc(S(=O)(=O)N(CC(C)C)C[C@@H](O)[C@H](Cc2ccccc2)NC(=O)O[C@H]2CCOC2)cc1 [Compound 100, N-((2 syn,3S)-2-Hydroxy-4-phenyl-3-((S)-tetrahydrofuran-3-yloxycarbonylamino)-butyl)-N-isobutyl-4-methoxy-benzenesulfonamide]",pKi,9.80
C=C(C)CN(C[C@@H](O)[C@H](Cc1ccccc1)NC(=O)OC(C)(C)C)S(=O)(=O)c1ccc(F)cc1 [Compound 130],pKi,7.85
CC(=O)Nc1ccc(S(=O)(=O)N(C)C[C@@H](O)[C@H](Cc2ccccc2)NC(=O)O[C@H]2CCOC2)cc1 [Compound 101],pKi,6.60
CC(=O)Nc1ccc(S(=O)(=O)N(CC(C)C)C[C@@H](O)[C@H](Cc2ccccc2)NC(=O)O[C@H]2CCOC2)cc1Cl [Compound 53],pKi,7.57
COC(=O)N[C@@H](Cc1ccccc1)[C@H](O)CN(CC(C)C)S(=O)(=O)c1ccc(Cl)c(Cl)c1 [Compound 103],pKi,8.35
"NC(=O)C[C@H](NC(=O)c1ccc2ccccc2n1)C(=O)N[C@@H](Cc1ccccc1)[C@H](O)CN(Cc1ccccc1)S(=O)(=O)c1cccc2nonc12 [Compound 9, (S)-N-1-(3-((Benzo(1,2,5)oxadiazole-4-sulfonyl)-benzyl-amino)-(1S,2 syn)-1-benzyl-2-hydroxy-propyl)-2-((quinoline-2-carbonyl)-amino)-succinamide]",pKi,8.40
COc1ccc(S(=O)(=O)N(CCN2CCCCC2)C[C@@H](O)[C@H](Cc2ccccc2)NC(=O)O[C@H]2CCOC2)cc1 [Compound 1014],pKi,5.03
"Nc1ccc(S(=O)(=O)N(CC2CCCC2)C[C@@H](O)[C@H](Cc2ccccc2)NC(=O)O[C@H]2CCOC2)c(N)c1 [Compound 173, 2,4-Diamino-N-cyclopentylmethyl-N-((2 syn,3S)-2-hydroxy-4-phenyl-3-((S)-tetrahydrofuran-3-yloxycarbonylamino)-butyl)-benzenesulfonamide]",pKi,9.22
CC(=O)Nc1ccc(S(=O)(=O)N(CC(C)C)C[C@@H](O)[C@H](Cc2ccccc2)NC(=O)OCC(C)C)cc1 [Compound 28],pKi,7.77
CC(=O)Nc1ccc(S(=O)(=O)N(CC(C)C)C[C@@H](O)[C@H](Cc2ccccc2)NC(=O)C(=O)NC(C)(C)C)cc1 [Compound 41],pKi,6.66
CC(C)CN(C[C@@H](O)[C@H](Cc1ccccc1)NC(=O)OCc1cccnc1)S(=O)(=O)c1ccc2nonc2c1 [Compound 82],pKi,8.82
"Nc1ccc(S(=O)(=O)N(CC2CCCC2)C[C@@H](O)[C@H](Cc2ccccc2)NC(=O)O[C@H]2CCOC2)cc1 [Compound 171, 4-Amino-N-cyclopentylmethyl-N-((2 syn,3S)-2-hydroxy-4-phenyl-3-((S)-tetrahydrofuran-3-yloxycarbonylamino)-butyl)-benzenesulfonamide]",pKi,9.70
"CC(=O)Nc1ccc(S(=O)(=O)N(CC2CCCC2)C[C@@H](O)[C@H](Cc2ccccc2)NC(=O)OCc2cccnc2)cc1 [Compound 147, N-(4-(Cyclopentylmethyl-((2 syn,3S)-2-hydroxy-4-phenyl-3-(pyridin-3-yl-methoxycarbonylamino)-butyl)-sulfamoyl)-phenyl)-acetamide]",pKi,8.80
"C=CCOC(=O)N[C@@H](Cc1ccccc1)[C@H](O)CN(CC1CCCC1)S(=O)(=O)c1ccc(F)cc1 [Compound 114, N-((3-Allyloxycarbonylamino)-(2 syn,3S)-2-hydroxy-4-phenyl-butyl)-N-cyclopentylmethyl-4-fluoro-benzenesulfonamide]",pKi,9.46
"CC(C)CN(C[C@@H](O)[C@H](Cc1ccccc1)NC(=O)OCc1cccnc1)S(=O)(=O)c1ccc(F)cc1 [Compound 98, 4-Fluoro-N-((2 syn,3S)-2-hydroxy-4-phenyl-3-(pyridin-3-yl-methoxycarbonylamino)-butyl)-N-isobutyl-benzenesulfonamide]",pKi,9.30
CC(C)CN(CC(O)C(Cc1ccccc1)NC(=O)C(CC(N)=O)NC(=O)c1ccc2ccccc2n1)S(=O)(=O)c1ccc(-c2ccon2)s1 (stereo not drawn) [Compound 194],pKi,6.46
CC(C)CN(C[C@@H](O)[C@H](Cc1ccccc1)NC(=O)OC(C)(C)C)S(=O)(=O)c1ccc2nonc2c1 [Compound 64],pKi,8.52
CC(=O)Nc1ccc(S(=O)(=O)N(CC2CCCO2)CC(O)C(Cc2ccccc2)NC(=O)OC2CCOC2)cc1 (stereo not drawn) [Compound 133],pKi,7.62
CCCOC(=O)N[C@@H](Cc1ccccc1)[C@H](O)CN(CC(C)C)S(=O)(=O)c1ccc(Cl)c(Cl)c1 [Compound 89],pKi,8.70
CCCOC(=O)N[C@@H](Cc1ccccc1)[C@H](O)CN(CC(C)C)S(=O)(=O)c1ccc(NC(C)=O)c(Cl)c1 [Compound 90],pKi,7.03
"CC(=O)Nc1cccc(S(=O)(=O)N(CC(C)C)C[C@@H](O)[C@H](Cc2ccccc2)NC(=O)O[C@H]2CCOC2)c1 [Compound 91, N-(3-(((2 syn,3S)-2-Hydroxy-4-phenyl-3-((S)-tetrahydrofuran-3-yloxycarbonylamino)-butyl)-isobutyl-sulfamoyl)-phenyl)-acetamide]",pKi,8.60
COc1ccc(S(=O)(=O)N(CC2CCCC2)C[C@@H](O)[C@H](Cc2ccccc2)NC(=O)OCc2cccc(OC)c2)cc1 [Compound 178],pKi,10.00
C=C(C)CN(C[C@@H](O)[C@H](Cc1ccccc1)NC(=O)OC(C)(C)C)S(=O)(=O)c1ccc(NC(C)=O)cc1 [Compound 131],pKi,7.22
CC(C)CN(C[C@@H](O)[C@H](Cc1ccccc1)NC(=O)O[C@H]1CCOC1)S(=O)(=O)c1cccnc1 [Compound 1003],pKi,8.10
C=CCOC(=O)N[C@@H](Cc1ccccc1)[C@H](O)CN(CC1CCCC1)S(=O)(=O)c1ccc2c(c1)CCN2C(C)=O [Compound 156],pKi,8.55
"O=C(N[C@@H](Cc1ccccc1)[C@H](O)CN(CC1CCCCC1)S(=O)(=O)c1ccc(F)cc1)O[C@H]1CCOC1 [Compound 159, N-Cyclohexylmethyl-4-fluoro-N-((2 syn,3S)-2-hydroxy-4-phenyl-3-((S)-tetrahydrofuran-3-yloxycarbonylamino)-butyl)-benzenesulfonamide]",pKi,9.70
NC(=O)C[C@H](NC(=O)c1ccc2ccccc2n1)C(=O)N[C@@H](Cc1ccccc1)[C@H](O)CN(Cc1ccccc1)S(=O)(=O)c1cccc(C(=O)O)c1 [Compound 7],pKi,8.10
